Each molecule was assayed against c-Myc template DNA (c-myc quadruplex) (assay: Quadruplex binding / stop assay (Taq polymerase arrest, capillary electrophoresis)). Conditions: read-out: S DATA; Table 1D, stop assay data.

Compound	IC50
CC(C)N1CCN(c2c(F)cc3c(=O)c(C(=O)NCC(C)(C)CN(C)C)cn4c3c2Oc2ccccc2-4)CC1 [compound 1568]	> 15 µM
CN(C)CCCCNc1ccc2c(=O)c(C(=O)NC3CC(C)(C)NC(C)(C)C3)cn3c2c1Oc1cc2ccccc2cc1-3 [compound 1543]	1.75 µM
O=C(NCCN1CCCC1)c1cn2c3c(c(NCC4CCCO4)c(F)cc3c1=O)Oc1ccc(Cl)cc1-2 (stereo not shown) [compound 1799]	> 15 µM
O=C(NCCN1CCOCC1)c1cn2c3c(c(NCCCN4CCOCC4)ccc3c1=O)Oc1cc3ccccc3cc1-2 [compound 1533]	> 15 µM
CN1CCCC1CCNC(=O)c1cn2c3c(c(NCCCNC(=O)OC(C)(C)C)c(F)cc3c1=O)Oc1cc(Cl)ccc1-2 (stereo not shown) [compound 1808]	> 15 µM
COc1cccc(CCNc2c(F)cc3c(=O)c(C(=O)NCCC4CCCN4C)cn4c3c2Oc2cc3ccccc3cc2-4)c1OC (stereo not shown) [compound 1673]	2.5 µM
CN1CCCC1CCNC(=O)c1cn2c3c(c(NCCc4c[nH]c5ccccc45)c(F)cc3c1=O)Oc1cc3ccccc3cc1-2 (stereo not shown) [compound 1666]	1.75 µM
CCN(CC)CCCCNC(=O)c1cn2c3c(c(N4CCC(N)C4)c(F)cc3c1=O)Oc1ccc(Cl)cc1-2 (stereo not shown) [compound 1803]	3 µM
COc1cccc(CCNc2c(F)cc3c(=O)c(C(=O)NCCC4CCCN4C)cn4c3c2Oc2cc3ccccc3cc2-4)c1 (stereo not shown) [compound 1669]	1.75 µM

Next, values leading:

IC50	Compound
> 15 µM	O=C(NCCN1CCOCC1)c1cn2c3c(c(NCCN4CCOCC4)ccc3c1=O)Oc1cc3ccccc3cc1-2 [compound 1551]
1.75 µM	CN1CCCC1CCNC(=O)c1cn2c3c(c(/N=C4\CCCCN4)c(F)cc3c1=O)Oc1cc3ccccc3cc1-2 (stereo not shown) [compound 1482]
1.75 µM	CN1CCCC1CCNC(=O)c1cn2c3c(c(N4CCC(N5CCCCC5)CC4)c(F)cc3c1=O)Oc1cc3ccccc3cc1-2 (stereo not shown) [compound 1483]
0.75 µM	CN1CCCC1CCNC(=O)c1cn2c3c(c(N4CCC(c5ccccn5)C4)c(F)cc3c1=O)Oc1cc3ccccc3cc1-2 (stereo not shown) [compound 1507]
0.75 µM	CN1CCCC1CCNC(=O)c1cn2c3c(c(NCCCCN4CCCC4)c(F)cc3c1=O)Oc1cc3ccccc3cc1-2 (stereo not shown) [compound 1504]
> 15 µM	CN1CCN(CCCNC(=O)c2cn3c4c(c(N5CCC(NC(=O)OC(C)(C)C)C5)c(F)cc4c2=O)Oc2ccccc2-3)CC1 (stereo not shown) [compound 1585]
1.95 µM	CN1CCCC1CCNC(=O)c1cn2c3c(c(NC4CCS(=O)(=O)C4)c(F)cc3c1=O)Oc1cc3ccccc3cc1-2 (stereo not shown) [compound 1749]
0.75 µM	CC1CCCC(C)N1CCCNC(=O)c1cn2c3c(c(N4CCC(N)C4)c(F)cc3c1=O)Oc1cc3ccccc3cc1-2 (stereo not shown) [compound 1713]
0.75 µM	CN(C)CCCNc1c(F)cc2c(=O)c(C(=O)NCCC3CCCN3C)cn3c2c1Oc1cc2ccccc2cc1-3 (stereo not shown) [compound 1500]
1 µM	CN1CCCC1CCNC(=O)c1cn2c3c(c(N4CCC(n5c(=O)[nH]c6ccccc65)CC4)c(F)cc3c1=O)Oc1cc3ccccc3cc1-2 (stereo not shown) [compound 1477]
> 15 µM	CC(C)N1CCN(c2c(F)cc3c(=O)c(C(=O)NCCN4CCCC4)cn4c3c2Oc2ccccc2-4)CC1 [compound 1566]

Same assay, conditions: read-out: Stop Data c-Myc μM; concentration at which 50% of the DNA was arrested (arrested:full-length 1:1)

Compound	IC50
CN(C)CCCCNc1c(F)cc2c(=O)c(C(=O)NCCC3CCCN3C)cn3c4cc5c(=O)c6ccccc6c(=O)c5cc4oc1c23 (stereo not shown) [compound 354]	0.9 µM
O=C(c1cn2c3c(c(NC4CCNC4)c(F)cc3c1=O)Oc1cc3ccccc3cc1-2)N1CCOCC1 (stereo not shown) [compound 116]	1.75 µM
CN1CCN(c2c(F)cc3c(=O)c(C(=O)NCCCN4CCOCC4)cn4c5cc6c(=O)c7ccccc7c(=O)c6cc5oc2c34)CC1 [compound 172]	1.75 µM
CN1CCN(CCCNc2c(F)cc3c(=O)c(C(=O)NCCN4CCOCC4)cn4c3c2Oc2cc3c(cc2-4)oc2ccccc23)CC1 [compound 150]	1.75 µM
CN1CCN(CCCNc2c(F)cc3c(=O)c(C(=O)NCCCN4CCOCC4)cn4c3c2Oc2cc3ccccc3cc2-4)CC1 [compound 119]	1.75 µM
CN(C)c1ccc(NC(=O)c2cn3c4c(c(NCCC5CCCN5C)c(F)cc4c2=O)Oc2c-3ccc3ccccc23)cc1 (stereo not shown) [compound 136]	1.75 µM
CN(C)c1ccc(NC(=O)c2cn3c4c(c(N5CC[C@@H](N)C5)c(F)cc4c2=O)Oc2c-3ccc3ccccc23)cc1 [compound 82]	2.5 µM
CN1CCCN(c2c(F)cc3c(=O)c(C(=O)N4CCOCC4)cn4c3c2Oc2cc3ccccc3cc2-4)CC1 [compound 41]	2.5 µM
CN(C)CCCCNc1c(F)cc2c(=O)c(C(=O)NCCN3CCCC3)cn3c4cc5oc6cc([N+](=O)[O-])ccc6[nH]c5cc4oc1c23 [compound 586]	0.18 µM
CN1CCCC1CCNC(=O)c1cn2c3cc4c(=O)c5ccccc5c(=O)c4cc3oc3c(NCCCN4CCOCC4)c(F)cc(c1=O)c32 (stereo not shown) [compound 348]	0.9 µM
CN(C)CCCCNC(=O)c1cn2c3cc4oc5cc([N+](=O)[O-])ccc5[nH]c4cc3oc3c(NCCCCN(C)C)c(F)cc(c1=O)c32 [compound 587]	0.18 µM

The next lines start with the values.

IC50	Compound
0.75 µM	CN1CCN(CCCNCCC(=O)N[C@@H]2CCN(c3c(F)cc4c(=O)c(C(=O)NCCN5CCCC5)cn5c4c3Oc3cc4c(cc3-5)oc3ccccc34)C2)CC1 [compound 403]
2.5 µM	CN1CCN(CCCNc2c(F)cc3c(=O)c(C(=O)NCCN4CCOCC4)cn4c3c2Oc2cc3ccccc3cc2-4)CC1 [compound 60]
1.75 µM	CC1CCCN(CCCNc2c(F)cc3c(=O)c(C(=O)NCCC4CCCN4C)cn4c3c2Oc2cc3ccccc3cc2-4)C1 (stereo not shown) [compound 295]
1.75 µM	CN1CCCC1CCNC(=O)c1cn2c3c(c(N4CCC(C#N)(c5ccccc5)CC4)c(F)cc3c1=O)Oc1cc3ccccc3cc1-2 (stereo not shown) [compound 260]
0.75 µM	NC1CCN(c2c(F)cc3c(=O)c(C(=O)NCCCCN4CCCC4)cn4c3c2Oc2cc3ccccc3cc2-4)C1 (stereo not shown) [compound 431]
1.75 µM	NC1CCN(c2c(F)cc3c(=O)c(C(=O)NC4CCN(Cc5ccccc5)CC4)cn4c3c2Oc2cc3ccccc3cc2-4)C1 (stereo not shown) [compound 245]
1.75 µM	CC(C)(C)OC(=O)NC1CCN(c2c(F)c(N)c3c(=O)c(C(=O)NCCN4CCCC4)cn4c3c2Oc2cc3ccccc3cc2-4)C1 (stereo not shown) [compound 224]
0.75 µM	CN(C)CCCCNC(=O)c1cn2c3c(c(N4CCC(NC(=O)OC(C)(C)C)C4)ccc3c1=O)Oc1cc3ccccc3cc1-2 (stereo not shown) [compound 452]
1.75 µM	COc1ccc2[nH]cc(CCNC(=O)c3cn4c5c(c(N6CCC(N)C6)c(F)cc5c3=O)Oc3cc5ccccc5cc3-4)c2c1 (stereo not shown) [compound 299]
1.75 µM	CN1CCCC1CCNC(=O)c1cn2c3c(c(NCCN4CCCC4)c(F)cc3c1=O)Oc1c-2ccc2ccccc12 (stereo not shown) [compound 138]
1.75 µM	O=C(NCCN1CCOCC1)c1cn2c3c(c(NCCN4CCCC4)ccc3c1=O)Oc1cc3ccccc3cc1-2 [compound 268]
2.5 µM	CC(C)(C)OC(=O)N[C@@H]1CCN(C(=O)c2cn3c4c(c(NCCCN5CCOCC5)c(F)cc4c2=O)Oc2cc4ccccc4cc2-3)C1 [compound 50]
1.75 µM	CN(C)CCCCNC(=O)c1cn2c3c(c(N)c(F)c(NCCCN4CCOCC4)c3c1=O)Oc1cc3ccccc3cc1-2 [compound 192]
1.75 µM	CC1(C)CC(NC(=O)c2cn3c4c(c(N5CCC(NC(=O)OC(C)(C)C)C5)c(F)cc4c2=O)Oc2cc4ccccc4cc2-3)CC(C)(C)N1 (stereo not shown) [compound 182]
1.75 µM	CC(C)(C)OC(=O)NC1CCN(c2c(F)cc3c(=O)c(C(=O)NCCc4ccc(N)cc4)cn4c3c2Oc2cc3ccccc3cc2-4)C1 (stereo not shown) [compound 183]

Source: patent US7507727B2, “Substituted quinobenzoxazine analogs and methods of using thereof” (Cylene Pharmaceuticals, Inc., priority 2003, dated 2009)
